# Measured values from patent US20260041640A1 (INCYCLIX BIO, LLC, priority 2023, published 2026).
# Assay: Non-Sink Dissolution Method (gastric to intestinal transfer)
# Type: physicochemical
# Experimental: The Gastric Media comprised 0.01 N HCl (pH 2.0) at a dose of 1500 μgA/mL. Timepoints tested were 10 min and 25 min following microcentrifugation of 100 μL aliquots diluted 5× in MeOH at 18,500 g. The Intestinal Media comprised 0.5 wt % SIF in Phosphate Buffer (pH 6.5) at a dose of 500 μgA/mL. Timepoints tested were 5 min, 30 min, 45 min, 70 min, 180 min, and 24 hr (post-transfer) following microcentrifugation of 100 μL aliquots diluted 5× in MeOH at 18,500 g. Timepoints tested were 5 min, 45 min, and 24 hr (post-transfer) following ultracentrifugation of 100 μL aliquots diluted 5× in MeOH at 470,000 g. The supernatants were assayed by HPLC.
compound,measurement,setting,value
NS(=O)(=O)c1ccc(Nc2ncc3cc4n(c3n2)C2(CCCCC2)C(=O)NN4)cc1 [INX-315],"Non-Sink Dissolution, Micro @ 5 min","microcentrifuged (total drug), 5 min",13
same,"Non-Sink Dissolution, Micro @ 60 min","microcentrifuged (total drug), 60 min",12
same,"Non-Sink Dissolution, Micro @ 180 min","microcentrifuged (total drug), 180 min",13
same,"Non-Sink Dissolution, Ultra @ 5 min","ultracentrifuged (dissolved drug), 5 min",13
same,"Non-Sink Dissolution, Ultra @ 60 min","ultracentrifuged (dissolved drug), 60 min",12
same,"Non-Sink Dissolution, Ultra @ 180 min","ultracentrifuged (dissolved drug), 180 min",12
